Results reported in patent US20120076899A1, “SHELF STABLE MONATIN SWEETENED BEVERAGE” (Cargill, Incorporated, priority 2009, published 2012).

Assay: Total indole concentrations following sunlight exposure
Format: physicochemical
Procedure: Synthetic R,R-monatin containing approximately 95.4% R,R-monatin monopotassium salt (dry basis) was obtained from CSIR (Modderfontein, South Africa). About 39 mg/L of this monatin was placed in a buffered solution at a pH of about 2.8-3.0 comprising 9 mM citric acid-trisodium citrate in high purity water and preserved with about 150 mg/L sodium benzoate. To some samples 200 ppm SANMELIN™ AO-3000 enzymatically modified isoquercitrin (EMIQ) (San-Ei Gen F.F.I.—Osaka, Japan) was added. Dissolved O2 levels were either increased by bubbling compressed air or reduced by bubbling N2 (99.9% purity) through these samples until the target O2 concentrations were achieved. Dissolved O2 levels were determined at 20° C. using a FOXY fluorescence quenching O2 analyzer from Ocean Optics (Dunedin, Fla.). Samples were stored in clear, glass ampules (˜10 mL) after O2 adjustment and heat-sealed to create an air-tight enclosure. The samples were then either stored in the dark, or exposed to sunlight. The exposure to sunlight is a much harsher environment for photosensitive compounds than the fluorescent light box because sunlight is many times brighter (˜100,000 Lux vs. ˜2200 Lux) and produces higher-energy, UV radiation. In order to test samples under these alternate conditions, samples were stored outside and exposed to sunlight where temperatures varied from about 5 to about 30 degrees C. and light intensity ranged from 0 at night to about 100,000 Lux on a clear day. Duplicate samples were analyzed weekly for total indole concentrations via the following method.
Total indole (monatin and its intramolecular rearrangement products, monatin lactone and monatin lactam) concentrations were quantified by reversed phase HPLC at 40° C. using an Agilent Zorbax Eclipse C18 column with UV detection at 280 nm by PDA. The compounds were eluted by a gradient mobile phase consisting of (A) 1:1 methanol and acetonitrile (v:v) with 0.3% formic acid and 10 mM ammonium formate and (B) 0.3% formic acid in water with 10 mM ammonium formate. The integrated peak areas for the three (3) compounds were expressed in terms of monatin concentration (mg/L) based on a standard curve prepared for monatin. Thus, the extinction coefficient for monatin was applied to estimate concentrations of monatin lactone and monatin lactam since standards for these compounds were unavailable.

With NC(CC(O)(Cc1c[nH]c2ccccc12)C(=O)O)C(=O)O (centres unmarked) [R,R-monatin, 2-hydroxy-2-(indol-3-ylmethyl)-4-aminoglutaric acid] the “Total Indole Concentration” value (8.3 mg/L O2, 0 ppm EMIQ, Dark, 0 d) was 38.5 mg/L, the “Total Indole Concentration” value (8.3 mg/L O2, 0 ppm EMIQ, Dark, 7 d) was 39.4 mg/L and the “Total Indole Concentration” value (8.3 mg/L O2, 0 ppm EMIQ, Dark, 14 d) was 38.0 mg/L. The “Total Indole Concentration” value (8.3 mg/L O2, 0 ppm EMIQ, Dark, 21 d) was 36.9 mg/L, the “Total Indole Concentration” value (8.3 mg/L O2, 0 ppm EMIQ, Dark, 28 d) was 39.1 mg/L and the “Total Indole Concentration” value (8.3 mg/L O2, 0 ppm EMIQ, Light (sunlight), 0 d) was 38.5 mg/L. For the same molecule, the “Total Indole Concentration” value (8.3 mg/L O2, 0 ppm EMIQ, Light (sunlight), 7 d) was 0.0 mg/L, the “Total Indole Concentration” value (8.3 mg/L O2, 0 ppm EMIQ, Light (sunlight), 14 d) was 0.0 mg/L and the “Total Indole Concentration” value (8.3 mg/L O2, 0 ppm EMIQ, Light (sunlight), 21 d) was 0.0 mg/L. The “Total Indole Concentration” value (8.3 mg/L O2, 0 ppm EMIQ, Light (sunlight), 28 d) was 0.0 mg/L, the “Total Indole Concentration” value (<0.5 mg/L O2, 0 ppm EMIQ, Light (sunlight), 0 d) was 38.5 mg/L and the “Total Indole Concentration” value (<0.5 mg/L O2, 0 ppm EMIQ, Light (sunlight), 7 d) was 39.7 mg/L. For the same molecule, the “Total Indole Concentration” value (<0.5 mg/L O2, 0 ppm EMIQ, Light (sunlight), 14 d) was 34.4 mg/L, the “Total Indole Concentration” value (<0.5 mg/L O2, 0 ppm EMIQ, Light (sunlight), 21 d) was 32.0 mg/L and the “Total Indole Concentration” value (<0.5 mg/L O2, 0 ppm EMIQ, Light (sunlight), 28 d) was 30.6 mg/L. The “Total Indole Concentration” value (<0.5 mg/L O2, 200 ppm EMIQ, Light (sunlight), 0 d) was 38.5 mg/L, the “Total Indole Concentration” value (<0.5 mg/L O2, 200 ppm EMIQ, Light (sunlight), 7 d) was 36.0 mg/L and the “Total Indole Concentration” value (<0.5 mg/L O2, 200 ppm EMIQ, Light (sunlight), 14 d) was 38.4 mg/L. For the same molecule, the “Total Indole Concentration” value (<0.5 mg/L O2, 200 ppm EMIQ, Light (sunlight), 21 d) was 32.8 mg/L and the “Total Indole Concentration” value (<0.5 mg/L O2, 200 ppm EMIQ, Light (sunlight), 28 d) was 36.7 mg/L.
